{"source": "patent US11773096B2", "about": "“Small-molecule PI5P4K alpha/beta inhibitors and methods of treatment using same” (YALE UNIVERSITY, priority 2018, dated 2023)", "key": {"[1]": {"biological_target": "T1, PI5P4Kβ (Homo sapiens, UniProt P78356)", "T1 sequence (P78356 1-416)": "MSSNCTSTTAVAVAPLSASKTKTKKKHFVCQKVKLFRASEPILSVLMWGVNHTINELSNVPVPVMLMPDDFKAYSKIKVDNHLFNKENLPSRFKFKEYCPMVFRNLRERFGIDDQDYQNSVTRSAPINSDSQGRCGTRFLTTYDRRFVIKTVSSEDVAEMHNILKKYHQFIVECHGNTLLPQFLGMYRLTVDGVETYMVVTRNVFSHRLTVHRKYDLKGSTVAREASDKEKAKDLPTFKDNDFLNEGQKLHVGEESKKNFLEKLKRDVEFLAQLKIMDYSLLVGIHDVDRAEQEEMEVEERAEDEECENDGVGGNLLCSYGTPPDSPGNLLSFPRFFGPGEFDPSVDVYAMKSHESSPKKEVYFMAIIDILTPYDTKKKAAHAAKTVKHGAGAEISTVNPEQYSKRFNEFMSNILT", "experiment": "PI5P4Kβ kinase assay, 32P-labelled PI(4,5)P2 product resolved by TLC", "experimental": "(§2) Within each well, 10 μl final reaction mixture contains 100 μM PI(5)P, 2 μg/ml PI5P4Kα, 10 μM ATP (in FIG. 1B, ATP concentration varied from 10 μM to 100 μM), 10 mM MgCl2, 0.1% CHAPS and 20 mM HEPES pH 7.3. […] Kinase assay based on PI(4,5)P2 (product) detection was carried out in a 50 μl assay mixture containing 40 μM PI(5)P, 0.4 μg/ml PI5P4Kα, 20 μM ATP (unless otherwise stated), 10 mM MgCl2, 20 mM HEPES pH 7.3, and 10 mCi [γ-^32P]-ATP for 1 h at RT. […] The reaction was terminated by 5 μl 12N HCl. After termination, 175 μl PBS buffer and 380 μl methanol/chloroform mix (1:1, v/v) containing 10 μg/ml bovine brain extract (type I; Folch Fraction I; Sigma Aldrich) were added. The lower organic phase, containing the extracted lipids, was collected and dried under vacuum. The dried lipids were re-suspended in 25 μl methanol/chloroform mix (2:1, v/v), and separated by thin-layer chromatography (TLC). For TLC, heat activated 1% potassium oxalate-coated silica gel 60 plates were used (20 cm×20 cm, Merck), and the running solvent contained water, acetic acid, methanol, acetone, and chloroform (3:32:24:30:64 mix by volume). Radiolabeled lipid product was quantified with a phosphor imager (Bio-Rad Molecular Imager FX). […] The inhibitor was usually incubated with the enzyme at RT for 20 min before the reaction was initiated."}, "[2]": {"system": "AMPK", "experiment": "Western blot of ACC phosphorylation by AMPK in myotubes (FIG. 3F)", "format": "cell-based", "procedure": "(§1) After wash with cold DPBS buffer, cells were lysed in RIPA buffer that contained 50 mM Tris-HCl pH 8.0, 150 mM NaCl, 1 mM EDTA, 1 mM EGTA, 1% NP-40, 0.5% sodium deoxycholate, 0.1% SDS, and protease and phosphatase inhibitor cocktails (Roche). Total protein concentrations were measured using a BCA assay (Thermo scientific). Cell lysate (about 80 μg protein) was resolved by SDS-PAGE and blotted onto PVDF membranes. The membranes were probed overnight at 4° C. with appropriate primary antibodies (Cell Signaling Technology) and incubated with secondary fluorescent antibodies (LI-COR Biosciences) for 1 hr at room temperature before imaging by an Odyssey CLx system."}, "[3]": {"biological_target": "T2, PI5P4Kα (Homo sapiens, UniProt P48426)", "T2 sequence (P48426 1-406)": "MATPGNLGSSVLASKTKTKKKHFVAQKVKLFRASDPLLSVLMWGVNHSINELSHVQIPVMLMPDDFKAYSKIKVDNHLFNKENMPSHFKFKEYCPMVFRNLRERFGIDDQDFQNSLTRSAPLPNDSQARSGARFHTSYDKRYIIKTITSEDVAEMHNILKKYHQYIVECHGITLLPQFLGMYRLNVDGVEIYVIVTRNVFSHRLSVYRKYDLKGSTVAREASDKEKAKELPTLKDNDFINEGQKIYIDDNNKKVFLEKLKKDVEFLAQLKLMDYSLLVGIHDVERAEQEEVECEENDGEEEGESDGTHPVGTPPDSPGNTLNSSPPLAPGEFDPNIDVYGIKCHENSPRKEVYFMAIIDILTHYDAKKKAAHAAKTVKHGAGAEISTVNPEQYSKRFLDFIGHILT", "experiment": "PI5P4Kα kinase assay, 32P-labelled PI(4,5)P2 product resolved by TLC", "experimental": "as §2"}, "[4]": {"biological_target": "T2, PI5P4Kα", "experiment": "PI5P4Kα in vitro kinase assay based on ADP detection (ADP-Glo), kinetic studies", "format": "biochemical", "design": "made in house", "experimental": "Lipid vesicles [2:1 mixture of DPPS and PI(5)P] were prepared by sonication and extrusion in a buffer containing 0.1% CHAPS, 20 mM HEPES pH 7.3, 200 mM NaCl, 20 mM MgCl2, aliquoted, and stored at −80° C. Immediately before assay, thawed lipid suspension was sonicated and extruded again, and mixed with PI5P4Kα freshly purified in the same buffer. […] 20 nl of library compound (10 mM DMSO solution) was transferred to the well by an Aquarius system (Tecan). The plates were shaken for 30 s. 1 μl ATP solution was then added to initiate the reaction (final concentrations: PI(5)P 100 μM; lipid kinase 2 μg/ml; ATP 40 μM; library compound 20 μM). After incubating at RT in the dark for 1 h, 5 μl ADP-Glom reagent (Promega) was added to stop the reaction. After 40 min further incubation, 10 μl Kinase Detection reagent (Promega) was added. After 30 min, the luminescence was measured with an EnVision Multimode Plate Reader.\nIn vitro kinase assay based on ADP (product) detection was performed similarly in a white solid-bottom 96-well plate (Corning 3600). Within each well, 10 μl final reaction mixture contains 100 μM PI(5)P, 2 μg/ml PI5P4Kα, 10 μM ATP (in FIG. 1B, ATP concentration varied from 10 μM to 100 μM), 10 mM MgCl2, 0.1% CHAPS and 20 mM HEPES pH 7.3. After reaction, 10 μl ADP-Glo™ reagent and 20 μl Kinase Detection reagent were used for luminescence reading. […]"}, "[5]": {"biological_target": "T2, PI5P4Kα", "experiment": "Competitive fluorescent binding assay with TNP-ATP", "design": "made in house", "details": "displacement of 10 μM TNP-ATP from 6.8 μM PI5P4Kα"}, "[6]": {"system": "C2Cl2 myotubes", "experiment": "Immunoblot analysis of signaling in C2Cl2 myotubes", "format": "cell-based, mouse", "details": "FIG. 3E", "procedure": "BT-474 and MCF7 breast cancer cells, C2Cl2 mouse myoblast cells, and HEK 293T cells were maintained in high-glucose DMEM medium containing 10% FBS. L6 rat myoblast cells were maintained in α-MEM medium containing 10% FBS. For differentiation into myotubes, C2Cl2 cells were kept in DMEM medium containing 2% horse serum for 5 days, and L6 cells were kept in α-MEM medium containing 2% FBS for 7 days. Amino-acid-free DMEM medium was prepared using powder from USBio, and MEM amino acids solution was from Gibco. Media were all supplemented with 100 U/ml penicillin/streptomycin. Cell lines were purchased from ATCC.\nas §1"}, "[7]": {"system": "myotubes", "experiment": "Glucose consumption and lactate production in myotube culture media", "format": "cell-based", "procedure": "To measure glucose consumption and lactate production, a total of 1×10^5 cells were seeded into each well of a 12-well plate and cultured in the presence of compound for 48 hrs. The culture media were collected and deproteinized by centrifugation using an Amicon Ultra centrifugal filter (3 kDa cut-off), while cells were lysed and used for protein concentration determination by BCA assay. The media were assayed immediately for glucose and lactate levels using colorimetric assay kits from BioVision following the manufacturer's protocols. The values were normalized against protein concentration. All measurements were made in triplicate."}, "[8]": {"system": "L6 myotubes", "experiment": "2-deoxyglucose uptake", "format": "cell-based, rat", "details": "overnight treatment with 20 μM 7a or 1 mM metformin", "procedure": "To measure 2-deoxyglucose (2-DG) uptake, L6 myotubes were treated with compound or DMSO control overnight in the absence of serum in α-MEM. Following treatment, cells were washed twice with KRH buffer (50 mM HEPES pH 7.4, 137 mM NaCl, 4.7 mM KCl, 1.85 mM CaCl2, 1.3 mM MgSO4) containing 0.1% BSA. Residual wash buffer was removed by aspiration. Cells were then incubated for 10 min at 37° C. in a KRH buffer containing 0.1% BSA, 5 mM unlabeled 2-DG and 2 μCi/ml [1,2-^3H(N)]-2-deoxy-D-glucose (PerkinElmer). The uptake was terminated by washing four times with ice-cold KRH buffer containing 0.1% BSA. Nonspecific 2-DG uptake into cells was determined in the presence of 10 μM cytochalasin B, which inhibits glucose transporters, and subtracted. The cells were lysed with 0.05 M NaOH for 2 hrs at 37° C. 10 μl cell lysate was used to quantify protein concentration by BCA assay. The remaining sample was transferred to a scintillation vial containing 3 ml Opti-Fluor liquid scintillation cocktail (PerkinElmer), and radioactivity was determined using a Beckman Coulter LS 6500 scintillation system and normalized against protein concentration."}}, "note": "Entries after “also recorded” stand apart in the source; their conditions may differ.", "data": [{"compound": "CN1C(=O)[C@@H](CC2CCCCC2)N(C2CCCC2)c2nc(Nc3cc(Cl)c(O)c(Cl)c3)ncc21", "note": "[7b, (R)-7-(cyclohexylmethyl)-8-cyclopentyl-2-((3,5-dichloro-4-hydroxyphenyl)amino)-5-methyl-7,8-dihydropteridin-6(5H)-one]", "values": [{"measurement": "potency/affinity for PI5P4Kβ in vitro", "setting": "[1]", "result": "no effect"}, {"measurement": "selectivity between PI5P4Kα and PI5P4Kβ", "setting": "[1]", "result": "more specific for PI5P4Kβ; also recorded: more potent against PI5P4Kβ than PI5P4Kα"}, {"measurement": "ACC phosphorylation / AMPK activation", "setting": "[2]", "result": "activated; also recorded: enhanced"}, {"measurement": "potency/affinity for PI5P4Kα in vitro", "setting": "[3]", "result": "weaken the affinity"}]}, {"compound": "CN1C(=O)[C@@H](Cc2ccccn2)N(C2CCCC2)c2nc(Nc3cc(Cl)c(O)c(Cl)c3)ncc21", "note": "[7e, (R)-8-cyclopentyl-2-((3,5-dichloro-4-hydroxyphenyl)amino)-7-(pyridine-2-ylmethyl)-5-methyl-7,8-dihydropteridin-6(5H)-one]", "values": [{"measurement": "Ki", "setting": "[1]", "result": "20 to 60", "unit": "nM"}, {"measurement": "Ki", "setting": "[3]", "result": "20 to 60", "unit": "nM"}]}, {"compound": "CN1C(=O)[C@@H](CC2CCCC2)N(C2CCCC2)c2nc(Nc3ccc4[nH]nnc4c3)ncc21", "note": "[7f, (R)-2-((1H-benzo[d][1,2,3]triazol-5-yl)amino)-8-cyclopentyl-7-(cyclopentylmethyl)-5-methyl-7,8-dihydropteridin-6(5H)-one]", "values": [{"measurement": "Ki", "setting": "[1]", "result": "80 to 230", "unit": "nM"}, {"measurement": "Ki", "setting": "[3]", "result": "200 to 700", "unit": "nM"}]}, {"compound": "CN1C(=O)[C@@H](CC2CCCC2)N(C2CCCC2)c2nc(Nc3ncc(C(=O)O)s3)ncc21", "note": "[7g, (R)-2-((8-cyclopentyl-7-(cyclopentylmethyl)-5-methyl-6-oxo-5,6,7,8-tetrahydropteridin-2-yl)amino)thiazole-5-carboxylic acid]", "values": [{"measurement": "Ki", "setting": "[1]", "result": "100 to 280", "unit": "nM"}, {"measurement": "Ki", "setting": "[3]", "result": "30 to 90", "unit": "nM"}]}, {"compound": "CN1C(=O)[C@@H](CC2CCCC2)N(C2CCCC2)c2nc(Nc3csc(C(=O)O)c3)ncc21", "note": "[7h, (R)-4-((8-cyclopentyl-7-(cyclopentylmethyl)-5-methyl-6-oxo-5,6,7,8-tetrahydropteridin-2-yl)amino)thiophene-2-carboxylic acid]", "values": [{"measurement": "Ki", "setting": "[1]", "result": "80 to 160", "unit": "nM"}, {"measurement": "Ki", "setting": "[3]", "result": "110 to 220", "unit": "nM"}]}, {"compound": "CN1C(=O)[C@@H](CC2CCCC2)N(C2CCCC2)c2nc(Nc3cc(F)c(C(=O)O)c(F)c3)ncc21", "note": "[7i, (R)-4-((8-cyclopentyl-7-(cyclopentylmethyl)-5-methyl-6-oxo-5,6,7,8-tetrahydropteridin-2-yl)amino)-2,6-difluorobenzoic acid]", "values": [{"measurement": "Ki", "setting": "[1]", "result": "75 to 150", "unit": "nM"}, {"measurement": "Ki", "setting": "[3]", "result": "55 to 110", "unit": "nM"}]}, {"compound": "CN1C(=O)[C@@H](Cc2ccccn2)N(C2CCCC2)c2nc(Nc3ncc(C(=O)O)s3)ncc21", "note": "[7j, (R)-2-((8-cyclopentyl-5-methyl-6-oxo-7-(pyridin-2-ylmethyl)-5,6,7,8-tetrahydropteridin-2-yl)amino)thiazole-5-carboxylic acid]", "values": [{"measurement": "Ki", "setting": "[1]", "result": "400 to 800", "unit": "nM"}, {"measurement": "Ki", "setting": "[3]", "result": "50 to 100", "unit": "nM"}]}, {"compound": "CN1C(=O)[C@@H](Cc2ccccn2)N(C2CCCC2)c2nc(Nc3ccc4[nH]nnc4c3)ncc21", "note": "[7k, (R)-2-((1H-benzo[d][1,2,3]triazol-5-yl)amino)-8-cyclopentyl-5-methyl-7-(pyridin-2-ylmethyl)-7,8-dihydropteridin-6(5H)-one]", "values": [{"measurement": "Ki", "setting": "[1]", "result": "100 to 200", "unit": "nM"}]}, {"compound": "CC[C@@H]1C(=O)N(C)c2cnc(Nc3ccc(C(=O)NC4CCN(C)CC4)cc3OC)nc2N1C1CCCC1", "note": "[BI-2536]", "values": [{"measurement": "ACC phosphorylation / AMPK activation", "setting": "[2]", "result": "did not increase; also recorded: did not induce"}]}, {"compound": "CC(C)CCN1c2nc(Nc3cc(F)c(O)c(F)c3)ncc2N(C)C(=O)C1C", "note": "(stereo not shown) [BI-D1870]", "values": [{"measurement": "Ki", "setting": "[4]; competitive with ATP", "result": "~1000", "unit": "nM"}, {"measurement": "ACC phosphorylation / AMPK activation", "setting": "[2]", "result": "did not increase; also recorded: did not induce"}, {"measurement": "Kd", "setting": "[5]", "result": "~1300", "unit": "nM"}]}, {"compound": "CS(=O)(=O)N1CCN(Cc2cc3nc(-c4cccc5[nH]ncc45)nc(N4CCOCC4)c3s2)CC1", "note": "[GDC-0941, reference compound]", "values": [{"measurement": "insulin-induced Akt phosphorylation at Ser-473", "setting": "[6]", "result": "eliminated"}]}, {"compound": "C[C@@H]1COCCN1c1cc(=O)n2c(n1)N(Cc1cncc(Cl)c1)[C@H](C(F)(F)F)CC2", "note": "[SAR405, reference compound]", "values": [{"measurement": "mTORC1 activation by amino acids", "setting": "[6]", "result": "prevented"}]}, {"compound": "CN(C)C(=N)N=C(N)N", "note": "[metformin, reference compound]", "values": [{"measurement": "molar fraction of consumed glucose used for lactate fermentation", "setting": "[7]; 48 hours", "result": 41, "unit": "%"}, {"measurement": "lactate accumulated in the media", "setting": "[7]; 48 hours after treatment", "result": 8.6, "unit": "mM"}, {"measurement": "reduction of glucose concentration in the media", "setting": "[7]; 48 hours after treatment", "result": 10.6, "unit": "mM"}, {"measurement": "rate of glucose uptake (labeled 2-deoxyglucose)", "setting": "[8]", "result": "doubled"}]}, {"compound": "CC[C@@H]1C(=O)N(C)c2cnc(Nc3ccc(C(=O)N[C@H]4CC[C@H](N5CCN(CC6CC6)CC5)CC4)cc3OC)nc2N1C(C)C", "note": "[volasertib]", "values": [{"measurement": "Kis for PI5P4Kα compared with BI-D1870", "setting": "[4]; ATP 10 μM", "result": "slightly higher"}]}]}
